Assay results from patent EP0290583B1, “$g(a) OLIGONUCLEOTIDES” (CENTRE NATIONAL DE LA RECHERCHE SCIENTIFIQUE (CNRS), priority 1986, dated 1988).

How the values were obtained:
[1] = test system: fragment d'ADN simple brin (10 nM) de séquence d(^5'TGAGTGAGTAAAAAAAATGAGTGCCAA^3'); test: Specific cleavage of single-stranded DNA by a phenanthroline-coupled alpha-oligonucleotide; type: biochemical; details: 5µM, sulfate cuivrique (1µM), acide β-mercaptopropionique (1 mM), 0°C, 3 heures
Experimental: (§1) L'α-D-oligonucléotide décrit à l'exemple XIV (5µM) est dissous dans un tampon à pH 7 contenant 10 mM cacodylate de sodium et 0,1 M NaCl. […] Du sulfate cuivrique (1µM) et de l'acide β-mercaptopropionique (1 mM) sont ajoutés à 0°C et le mélange est incubé à 0°C pendant 3 heures. De la bathocuproine est ajoutée pour arrêter la réaction. Le mélange est disposé sur un gel de polyacrylamide à 18 % et soumis à l'électrophorèse.

[2] = test system: fragment d'ADN double brin; test: Specific cleavage of double-stranded DNA by a phenanthroline-coupled alpha-oligonucleotide; type: biochemical; details: en présence de 1 mM spermine
Experimental: as §1
La position des sites de coupure sur le double brin indique que l'α-D-oligothymidylate XIV est orienté parallèlement au brin contenant la séquence A₈.

[3] = test system: β-d^5' [AGATTTGAG]^3'; test: Half-dissociation temperature (T 1/2) of the hybridisation complex with a parallel complementary beta strand; type: binding; details: 10 mM cacodylate de sodium/0,1M NaCl, pH = 7, 10 µM
Description: (§2) Les nouveaux produits de formule générale (I) selon l'invention et les produits de formule générale (I) dans laquelle L représente un atome d'oxygène, R et R' représentent chacun un atome d'hydrogène et B représente un base nucléique naturelle forment des complexes d'hybridation avec les séquences complémentaires d'ARN beaucoup plus stables que ceux qui sont formés avec l'ADN. La stabilité peut être mesurée par la température de demi-transition des complexes (T 1/2) lors d'une élévation de température. Les valeurs de T 1/2 sont déterminées à la concentration de 10⁻⁵M en α -oligonucléotide dans un tampon à pH = 7 contenant du cacodylate de sodium (10⁻²M) et du chlorure de sodium (0,1 M). Les résultats sont rassemblés dans les Tableaux I.
(§3) Dans les hybrides formés par les dérivés des α-oligonucléotides selon l'invention avec les séquences d'acides nucléiques complémentaires les deux brins possèdent généralement la même orientation.

[4] = test system: β-d^5'[GAGTTTAGA]^3'; test: Complex formation with the antiparallel beta strand; type: binding; details: antiparallel sequence; 10 mM cacodylate de sodium/0,1M NaCl, pH = 7, 10 µM
Description: as §2, §3

[5] = test system: β-d^5' (ApCpGpGpApApTpApTpApGpC]^3'; test: Half-dissociation temperature (T 1/2) of the hybridisation complex with a parallel complementary beta strand; type: binding; details: 10 mM cacodylate de sodium/0,1M NaCl, pH = 7, 10 µM
Description: as §2, §3

Substance: (Phe-CH₂)α-[(sp)(Tp)₇T] [XIV]
- coupure de l'ADN simple brin (sites de coupures) [1]: sites de coupures sont révélés
- coupure de l'ADN double brin [2]: induit des coupures sur les deux brins de la double hélice

Substance: Acr(CH₂)₅ α-d^5'[TCTAAACTC]^3'
- température de demi-dissociation (T 1/2) [3]: 27 °C
- complexe mis en évidence au-dessus de 0°C [4]: Aucun complexe

Substance: [Acr(CH₂)₅]α-d(pCpCpTpTpApTpApTpT) [Acr(CH₂)₅-α-d^5' [pCpCpTpTpApTpApTpT]^3']
- température de demi-dissociation (T 1/2) [5]: 35 °C
